Laboratory results reported in publication PMC5442318, “Hundreds of dual-stage antimalarial molecules discovered by a functional gametocyte screen” (Nature Communications, 2017).
pIC50: −log10 of the molar value.

Tests used:
[1] = test system: P. falciparum stage V female gametocytes; assay: P. falciparum female gametocyte activation assay (Pf FGAA), 24 h or 48 h preincubation, Pfs25 expression readout; assay type: cell-based, Plasmodium falciparum NF54; details: mean; read-out: Gametocytes mean Pf FGAA IC50
How it was run: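 Purified stage V gametocytes from P. falciparum NF54 gametocyte cultures were exposed to compounds for 24 h or 48 h at 37 °C under 3% O2/5% CO2, then activated by temperature drop plus xanthurenic acid. Activated females were stained with Cy3-anti-Pfs25 (0.5 μg ml^−1) for 24 h at 26 °C and counted by high-content imaging; pIC50 by nonlinear regression.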

[2] = test system: P. falciparum stages IV–V gametocytes; assay: Gametocytocidal ATP-depletion assay (gametocyte ATP bioluminescence); assay type: cell-based, Plasmodium falciparum
How it was run: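 Purified stage IV–V gametocytes (12,500/well) incubated with compound for 48 h at 37 °C under 3% O2/5% CO2. ATP measured by BacTiter-Glo luminescence as a viability surrogate; hits tested at 2 μM single concentration.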

HepG2 cells = assay: HepG2 cytotoxicity assay; assay type: cell-based; details: mean
How it was run: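 Steps: equilibrate plates and detection reagent at room temperature (30 min); dispense CellTiter-Glo; allow 10 min at room temperature; record luminescence.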

[3] = test system: P. falciparum asexual blood stages; details: TCAMS data; ref 1 (Gamo et al., 2010); read-out: Pf Asexual blood stages XC50; cited from earlier work

Row | Compound | pIC50 [1] | Gametocytes mean ATP inhibition at 2µM (%) [2] [%] | HepG2 cells mean TOX50 (HepG2 cells) [µM] | pIC50 [3]
1 | CN1CCN(CCCNCc2cccc(Nc3nccc(Nc4ccc(Oc5ccccc5)cc4)n3)c2)CC1 [TCMDC-138616] | 6.01 | 13.07 | 4.68 | 6.12
2 | Cl.O=C(NCCCCN1CCC(c2ccc3c(c2O)CCCC3)CC1)c1ccc(NC(=O)c2ccc(Cl)cc2)cc1 [TCMDC-138645] | 5.83 | -0.21 | 3.80 | 6.62
3 | C=CCC1OC(=O)c2cc(OC)cc(OC)c21 (stereo not drawn) [TCMDC-138677] | 6.44 | 95.50 | 2.29 | 6.47
4 | CCc1ccc(C2CCN(CCCCNC(=O)c3ccc(NC(=O)c4ccc(Cl)cc4)cc3)CC2)c(OCCO)c1 [TCMDC-138703] | 5.65 | -4.56 | 5.37 | 5.86
5 | COc1cc2nc(N3CCC(CNC(=O)c4ccc(-c5ccc(C(F)(F)F)cc5)cc4)CC3)nc(N)c2cc1OC [TCMDC-138716] | 6.07 | 21.96 | 4.92 | 6.89
6 | COc1cc2nc(N3CCC(CNC(=O)c4ccc(-c5ccc(Cl)cc5)cc4)CC3)nc(N)c2cc1OC [TCMDC-138718] | 6.05 | 12.29 | 4.22 | 6.82
7 | COc1cc2nc(N3CCC(CNC(=O)c4ccc(-c5ccc(-c6noc(C)n6)cc5)cc4)CC3)nc(N)c2cc1OC [TCMDC-138754] | 5.98 | 90.89 | 4.90 | 6.85
8 | COc1cc2nc(N3CCC(CNCc4ccc(-c5ccc(C(F)(F)F)cc5)cc4)CC3)nc(N)c2cc1OC [TCMDC-138757] | 7.00 | 99.68 | 1.43 | 7.05
9 | O=C(NCCCCN1CCC(c2ccc3c(c2OCCN2CCCC2)CCCC3)CC1)c1ccc(-c2ccc(C(F)(F)F)cc2)cc1 [TCMDC-138768] | 5.70 | -10.59 | 5.39 | 6.35
10 | O=C(NC1CCN(CCN2CCC(c3c[nH]c4ccccc34)CC2)CC1)c1ccc(-c2ccc(C(F)(F)F)cc2)cc1 [TCMDC-138845] | 5.74 | -6.33 | 4.68 | 6.68
11 | CC(C)Cn1cc(C2CCN(CCN3CCC(CNC(=O)c4ccc(-c5ccc(C#N)cc5)cc4)CC3)CC2)c2ccccc21 [TCMDC-138849] | 5.99 | 8.40 | 4.79 | 6.10
12 | CC(C)Cn1cc(C2CCN(CCN3CCC(CNC(=O)c4ccc(-c5ccc(C(F)(F)F)cc5)cc4)CC3)CC2)c2ccccc21 [TCMDC-138852] | 6.06 | 30.37 | 4.80 | 6.12
13 | O=C(NCC1CCN(CCN2CCC(c3cn(CCO)c4ccccc34)CC2)CC1)c1ccc(-c2ccc(C(F)(F)F)cc2)cc1 [TCMDC-138856] | 5.83 | 5.55 | 2.69 | 6.36
14 | COc1c(C2CCN(CCN3CCC(CNC(=O)c4ccc(-c5ccc(C#N)cc5)cc4)CC3)CC2)ccc2c1CCCC2 [TCMDC-138859] | 5.84 | 3.05 | 3.43 | 6.34
15 | O=C(O)C(F)(F)F.O=S(=O)(c1ccccc1)n1ccc2cc(Nc3ncnc4cc(C#C[C@H]5CCCN5)sc34)ccc21 [TCMDC-138913] | 5.93 | 75.13 | 5.50 | 5.97
16 | CC1(C)CC(NCCCCCCCOc2ccc(OCc3ccccc3)cc2)CC(C)(C)N1.Cl [TCMDC-138958] | 5.91 | 38.17 | 2.75 | 6.08
17 | Cl.Clc1ccc(OCCC2CCN(CCCCCCCN3CCC(CCOc4ccc(Cl)c(Cl)c4)CC3)CC2)cc1Cl [TCMDC-138967] | 6.28 | 95.79 | 1.64 | 6.21
18 | COc1ccc(NC(=O)c2ccc(OCCCCCCCOc3ccc(C(=O)Nc4ccc(OC)c(N5CCN(C)CC5)c4)cc3)cc2)cc1N1CCN(C)CC1.O=C(O)C(=O)O [TCMDC-139007] | 5.85 | -8.09 | 4.43 | 6.22
19 | COc1ccc(NC(=O)c2cccc(Br)c2)cc1N1CCN(CCCCCCCN2CCN(c3cc(NC(=O)c4cccc(Br)c4)ccc3OC)CC2)CC1.Cl [TCMDC-139020] | 5.97 | -4.19 | 6.03 | 6.74
20 | Oc1ccc2[nH]cc(C3CCN(CCCNCc4ccc(-c5ccccc5)cc4)CC3)c2c1 [TCMDC-139047] | 5.84 | -20.32 | 5.62 | 6.14
21 | Cl.Nc1c2c(nc3ccc(NC(=O)CCCCCCc4ccccc4)cc13)CCCC2 [TCMDC-139056] | 5.62 | -10.66 | 5.42 | 6.60
22 | COC(=O)c1ccc(-c2ccc(-c3cccnc3)cc2C)cc1 [TCMDC-139074] | 6.23 | 88.85 | 3.63 | 6.18
23 | c1ccc(C23N=C(Nc4nc5ccccc5[nH]4)NC2(c2ccccc2)NC(Nc2nc4ccccc4[nH]2)=N3)cc1 (stereo not drawn) [TCMDC-139082] | 6.85 | 65.26 | 58.90 | 6.55
24 | COc1cccc(C23N=C(Nc4nc5ccccc5[nH]4)NC2(c2cccc(OC)c2)NC(Nc2nc4ccccc4[nH]2)=N3)c1 (stereo not drawn) [TCMDC-139087] | 7.05 | 64.05 | 40.74 | 6.80
25 | Clc1cccc(C23N=C(Nc4nc5ccccc5[nH]4)NC2(c2ccccc2)NC(Nc2nc4ccccc4[nH]2)=N3)c1 (stereo not drawn) [TCMDC-139089] | 6.82 | 71.66 | 42.76 | 6.28
26 | c1ccc(-c2nc(Nc3nc4ccccc4[nH]3)[nH]c2-c2ccccc2)cc1 [TCMDC-139099] | 6.24 | 51.90 | 10.98 | 6.21
27 | Cc1cc2nc(N=C3NC4(c5ccccn5)NC(=Nc5nc6cc(C)c(C)cc6[nH]5)NC4(c4ccccn4)N3)[nH]c2cc1C.O=C(O)C(F)(F)F (stereo not drawn) [TCMDC-139105] | 5.27 | 33.60 | 35.91 | 6.17
28 | C=C[C@H]1CN(CCCCCCC)CC[C@H]1CCNc1ccnc2ccc(OC)cc12 [TCMDC-139204] | 5.74 | 31.13 | 2.24 | 7.22
29 | CC(NCCc1cccc(Cl)c1)C(O)c1ccc(OCCCCCCOc2ccc(C(O)C(C)NCCc3cccc(Cl)c3)cc2)cc1 (stereo not drawn) [TCMDC-139334] | 6.00 | 41.15 | 2.63 | 6.40
30 | Cc1cc(N)c2cc(NC(=O)/C=C/c3ccc([N+](=O)[O-])cc3)ccc2n1 [TCMDC-139335] | 5.57 | -7.69 | 5.37 | 6.17
